The record followed here is ChEMBL document CHEMBL1933061, “Discovery of a novel class of aldol-derived 1,2,3-triazoles: potent and selective inhibitors of human cytochrome P450 19A1 (aromatase)” (Bioorg Med Chem Lett, 2012).

pKi: −log10 of the molar value.

The target of data set [1] is T1, Aromatase (Homo sapiens, UniProt P11511).
T1 sequence (P11511 whole entry): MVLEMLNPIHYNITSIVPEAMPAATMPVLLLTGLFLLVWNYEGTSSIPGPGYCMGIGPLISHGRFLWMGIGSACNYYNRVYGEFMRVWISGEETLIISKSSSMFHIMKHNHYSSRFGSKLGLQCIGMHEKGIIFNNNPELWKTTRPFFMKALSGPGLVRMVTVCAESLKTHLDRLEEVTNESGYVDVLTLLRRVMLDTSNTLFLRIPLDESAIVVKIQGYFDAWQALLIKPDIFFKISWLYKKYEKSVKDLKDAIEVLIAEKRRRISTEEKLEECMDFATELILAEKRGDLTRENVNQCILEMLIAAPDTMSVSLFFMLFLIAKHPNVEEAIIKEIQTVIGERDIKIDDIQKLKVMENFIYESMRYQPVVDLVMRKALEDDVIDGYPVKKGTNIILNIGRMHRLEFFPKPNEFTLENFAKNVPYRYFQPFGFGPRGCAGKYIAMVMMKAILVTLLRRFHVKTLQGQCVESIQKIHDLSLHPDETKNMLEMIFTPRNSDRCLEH
Nature of the data set: Inhibition of human recombinant aromatase assessed as conversion of O-dibenzylfluorescein benzyl ester substrate to fluorescein byproduct at 10 uM by fluorometric assay.

Data set [2] concerns the target T1, Aromatase. Nature of the data set: Inhibition of human recombinant aromatase assessed as conversion of O-dibenzylfluorescein benzyl ester substrate to fluorescein byproduct by fluorometric assay. The conditions noted are these: for inhibition (INH): human.
A further data set concerns the target Cytochrome P450 3A4 (Homo sapiens, UniProt P08684). In words: Inhibition of CYP3A4 at 10 uM. The data set is classed as ADME.
The next data set deals with T2, Cytochrome P450 1A1 (Homo sapiens, UniProt P04798).
T2 sequence (P04798 whole entry): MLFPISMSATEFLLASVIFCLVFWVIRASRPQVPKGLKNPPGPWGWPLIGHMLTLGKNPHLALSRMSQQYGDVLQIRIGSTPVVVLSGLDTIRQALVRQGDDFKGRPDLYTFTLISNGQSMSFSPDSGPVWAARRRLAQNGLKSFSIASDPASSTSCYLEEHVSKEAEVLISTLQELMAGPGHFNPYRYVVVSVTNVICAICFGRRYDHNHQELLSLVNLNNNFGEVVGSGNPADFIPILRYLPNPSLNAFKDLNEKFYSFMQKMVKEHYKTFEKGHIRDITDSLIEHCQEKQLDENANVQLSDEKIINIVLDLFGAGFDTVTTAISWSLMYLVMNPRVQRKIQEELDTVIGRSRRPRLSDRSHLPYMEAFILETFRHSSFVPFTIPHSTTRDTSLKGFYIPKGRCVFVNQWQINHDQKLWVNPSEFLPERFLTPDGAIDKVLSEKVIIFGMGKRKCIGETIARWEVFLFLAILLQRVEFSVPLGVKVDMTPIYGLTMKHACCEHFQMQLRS
Nature of the data set: Inhibition of CYP1A1. The class given is ADME.

The target in another data set is Cytochrome P450 2D6 (Homo sapiens, UniProt P10635). Nature of the data set: Inhibition of CYP2D6. The class given is ADME.
Sequence of Cytochrome P450 2D6 (P10635 whole entry): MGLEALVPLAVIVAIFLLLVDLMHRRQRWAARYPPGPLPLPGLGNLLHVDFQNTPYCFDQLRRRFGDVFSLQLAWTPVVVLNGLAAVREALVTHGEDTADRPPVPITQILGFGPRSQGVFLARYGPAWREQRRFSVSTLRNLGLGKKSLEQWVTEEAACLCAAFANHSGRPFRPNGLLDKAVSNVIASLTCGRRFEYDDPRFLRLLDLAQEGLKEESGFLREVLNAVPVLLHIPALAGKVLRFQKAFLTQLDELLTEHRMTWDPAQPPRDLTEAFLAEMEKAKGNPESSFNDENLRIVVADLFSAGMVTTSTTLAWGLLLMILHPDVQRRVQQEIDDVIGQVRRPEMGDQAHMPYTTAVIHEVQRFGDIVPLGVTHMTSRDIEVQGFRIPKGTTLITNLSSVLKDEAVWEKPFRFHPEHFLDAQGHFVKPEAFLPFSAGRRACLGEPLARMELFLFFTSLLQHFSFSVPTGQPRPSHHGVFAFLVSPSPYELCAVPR

Sequence of Cytochrome P450 3A4 (P08684 whole entry): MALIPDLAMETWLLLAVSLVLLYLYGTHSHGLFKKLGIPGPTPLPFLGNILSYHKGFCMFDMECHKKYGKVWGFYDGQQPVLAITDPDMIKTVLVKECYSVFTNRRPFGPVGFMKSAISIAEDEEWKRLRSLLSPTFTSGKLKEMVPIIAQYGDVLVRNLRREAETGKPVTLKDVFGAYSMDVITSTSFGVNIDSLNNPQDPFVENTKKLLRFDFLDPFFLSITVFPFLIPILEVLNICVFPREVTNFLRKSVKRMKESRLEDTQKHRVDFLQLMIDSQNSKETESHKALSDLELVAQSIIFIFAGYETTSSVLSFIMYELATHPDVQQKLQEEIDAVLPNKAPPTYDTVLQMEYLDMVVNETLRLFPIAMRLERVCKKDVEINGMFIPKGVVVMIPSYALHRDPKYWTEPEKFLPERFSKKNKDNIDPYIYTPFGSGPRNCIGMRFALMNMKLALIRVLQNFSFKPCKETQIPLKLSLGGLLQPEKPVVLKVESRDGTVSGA

As to `COCO[C@H](c1ccccc1)[C@@H](CN=[N+]=[N-])c1ccccc1` (relative stereo), at Aromatase [1], the “inhibition (INH)” value is on record as “Not Active”.

Consider `CC(=O)O[C@H](c1ccccc1)[C@@H](Cn1ccnn1)c1ccccc1` (relative stereo), for which the pKi on Aromatase [2] was 6.60. For the same compound, at Cytochrome P450 3A4, the “inhibition (INH)” value is on record as “Not Active”.

Take `O=C(c1ccccc1)C(Cn1ccnn1)c1ccccc1` (stereo unspecified): the pKi at Cytochrome P450 1A1 was 5.27; at Aromatase [2] it was 6.00. In addition, on Cytochrome P450 3A4, the “inhibition (INH)” value is given as “Not Active”.

For `O=C(O[C@@H](c1ccccc1)[C@@H](Cn1ccnn1)c1ccccc1)c1ccccc1` (relative stereo), the pKi at Cytochrome P450 1A1 is 4.51; at Aromatase [2], 7.00. The “inhibition (INH)” value at Cytochrome P450 3A4 is on record as “Not Active”.

Turning to `COCO[C@H](c1ccccc1)[C@@H](Cn1ccnn1)c1ccccc1` (relative stereo), the pKi on Aromatase [2] was 7.10. On Cytochrome P450 3A4, the “inhibition (INH)” value is “Not Active”.

With `COCO[C@@H](c1ccccc1)[C@@H](Cn1cc([Si](C)(C)C)nn1)c1ccccc1` (relative stereo), the “inhibition (INH)” value at Aromatase [2] and on Aromatase [1] was “Not Active” in each case.

As to `O[C@@H](c1ccccc1)[C@@H](Cn1ccnn1)c1ccccc1` (relative stereo), the “inhibition (INH)” value at Aromatase [1] is reported as “Not Active”.

As to `COCO[C@@H](c1ccccc1)[C@@H](CN)c1ccccc1` (relative stereo), the “inhibition (INH)” value on Aromatase [1] is listed as “Not Active”.

As for `O[C@H](c1ccccc1)[C@@H](Cn1ccnn1)c1ccccc1` (relative stereo), the pKi at Cytochrome P450 2D6 was 3.15; at Aromatase [2] it was 7.30. Further, at Cytochrome P450 3A4, the “inhibition (INH)” value is “Not Active”.

For `COCO[C@H](c1ccccc1)[C@@H](Cn1cc([Si](C)(C)C)nn1)c1ccccc1` (relative stereo), at Aromatase [1], the “inhibition (INH)” value was “Not Active”.

On to `CC(=O)O[C@@H](c1ccccc1)[C@@H](Cn1ccnn1)c1ccccc1` (relative stereo), for which the pKi on Aromatase [2] was 7.22. Besides, the “inhibition (INH)” value against Cytochrome P450 3A4 was “Not Active”.

Take `COCO[C@@H](c1ccccc1)[C@@H](CN1CCOCC1)c1ccccc1` (relative stereo): the “inhibition (INH)” value on Aromatase [1] is reported as “Not Active”.

Turning to `COCO[C@@H](c1ccccc1)[C@@H](Cn1ccnn1)c1ccccc1` (relative stereo), the pKi on Cytochrome P450 2D6 was 2.95; on Aromatase [2], 6.10.

Regarding `COCO[C@@H](c1ccccc1)[C@@H](CN=[N+]=[N-])c1ccccc1` (relative stereo), the “inhibition (INH)” value on Aromatase [2] and on Aromatase [1] was “Not Active” throughout.
